Assay results: patent US20240076406A1, “SINGLE DOMAIN ANTIBODIES TARGETING CA-IX AS WELL AS COMPOSITIONS COMPRISING SAME” (National Research Council of Canada, priority 2021, published 2024)

Tests used:
[1] = system: SKRC59 and SKRC52 cell lines (low and high levels of hCA-IX); assay: Cell binding assay, plate format; type: cell-based, human; conditions: cell line of Table 3 not stated
Protocol: Cell binding assays were performed using a plate-based format, binding was expressed as the mean fluorescent intensity per cell area. (control IgG (●), cG250 (▪), sdCA9-1-Fc (▴), and sdCA9-2-Fc (▾)). KD values were determined by plotting fluorescent intensity measured for each condition of the sdCA9-Fc antibodies using Graphpad Prism. cG250 full sized antibody (FSA) and isotype matching IgG FSA were used as bench mark and negative control, respectively.
Cell binding. […] These cell lines have been used in the literature for the screening of scFv Abs for binding to hCA-IX (Xu et al. 2010). KD values were determined to be in the low nanomolar range, the clinically used cG250 full sized antibody (FSA) was used as a bench mark. An isotype matching hIgG was used as negative control (FIG. 5).

[2] = molecular target: T1, purified hCA-IX ECD dimer (Homo sapiens, UniProt Q16790); assay: In vitro rhCA-IX enzyme activity inhibition (4Mu-Ac hydrolysis); type: biochemical; conditions: [inhibitor] vs. normalized response - variable slope
T1 construct: in vitro enzyme activity assay using purified hCA-IX ECD dimer
Protocol: In vitro rhCA-IX enzyme activity inhibition. In order to examine the functional consequence of the binding of the two sdCA9-VHH antibodies to hCA-IX ECD, antibodies were tested in an in vitro enzyme activity assay using purified hCA-IX ECD dimer and 4-Methylumbelliferyl acetate (4Mu-Ac) as substrate.

[3] = system: 67NR^hCA-IX derived spheroids; assay: Spheroid growth inhibition, 67NR^hCA-IX; type: cell-based, mouse; conditions: monitored for 8 days; compared with 67NR derived spheroids
Description: Spheroid growth inhibition.

| Compound | Kd ([1]; cell binding, text: low nanomolar range, read-out: KD (best-fit value, one site specific binding)) [nM] | Bmax (best-fit value, one site specific binding) ([1]; mean fluorescent intensity per cell area) | HillSlope (best fit value) [2] | spheroid growth, different concentrations [3] |
| --- | --- | --- | --- | --- |
| cG250: clinically used anti-CA-IX full sized antibody (FSA), used as bench mark [reference compound] | 1.29 | 574.6 |  |  |
| NS(=O)(=O)c1ccc(NC(=O)Nc2ccc(F)cc2)cc1 [Clone U104, reference compound] |  |  | −0.3305 | inhibited spheroid growth in a dose-dependent manner |
